According to US20240327412A1, “FACTOR XIIA INHIBITORS” (KALVISTA PHARMACEUTICALS LIMITED, priority 2021, published 2024):

Tests used:
Type in all cases: biochemical
[1] = target: KLK1 (Homo sapiens, UniProt P06870); assay: Related protease inhibition: KLK1 (fluorogenic substrate at Km); conditions: class symbols per Table 18
Protocol: (§1) In vitro inhibition of related proteases was determined using an IC50 assay based on standard literature methods (see e.g. Shori et al., Biochem. Pharmacol., 1992, 43, 1209; Bouckaert et al., European Journal of Medicinal Chemistry 110 (2016) 181). Human serine protease enzyme Plasma Kallikrein, KLK1, FXa, Plasmin, Thrombin and Trypsin were assayed for enzymatic activity using an appropriate fluorogenic substrate at Km concentration, FXIa at fixed substrate concentration of 100 μM and various concentrations of the test compound. Protease activity was measured by monitoring the accumulation of liberated fluorescence from the substrate over 5 min at 25° C. The linear rate of fluorescence increase per minute was expressed as percentage (%) activity. IC50 values were calculated as the concentration of inhibitor giving 50% inhibition of the uninhibited enzyme activity (100%).

[2] = target: Plasmin (Homo sapiens, UniProt P00747); assay: Related protease inhibition: Plasmin (fluorogenic substrate at Km); conditions: class symbols per Table 18
Plasmin, sequence (P00747 581-810 limits assumed): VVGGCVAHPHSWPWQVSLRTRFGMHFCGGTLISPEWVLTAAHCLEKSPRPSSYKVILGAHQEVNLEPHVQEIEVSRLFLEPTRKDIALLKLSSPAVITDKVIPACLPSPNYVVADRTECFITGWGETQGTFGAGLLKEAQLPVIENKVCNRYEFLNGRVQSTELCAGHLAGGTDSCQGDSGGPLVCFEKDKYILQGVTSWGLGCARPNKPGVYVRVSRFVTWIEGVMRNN
Plasmin, sequence (P00747 97-580 partner limits assumed): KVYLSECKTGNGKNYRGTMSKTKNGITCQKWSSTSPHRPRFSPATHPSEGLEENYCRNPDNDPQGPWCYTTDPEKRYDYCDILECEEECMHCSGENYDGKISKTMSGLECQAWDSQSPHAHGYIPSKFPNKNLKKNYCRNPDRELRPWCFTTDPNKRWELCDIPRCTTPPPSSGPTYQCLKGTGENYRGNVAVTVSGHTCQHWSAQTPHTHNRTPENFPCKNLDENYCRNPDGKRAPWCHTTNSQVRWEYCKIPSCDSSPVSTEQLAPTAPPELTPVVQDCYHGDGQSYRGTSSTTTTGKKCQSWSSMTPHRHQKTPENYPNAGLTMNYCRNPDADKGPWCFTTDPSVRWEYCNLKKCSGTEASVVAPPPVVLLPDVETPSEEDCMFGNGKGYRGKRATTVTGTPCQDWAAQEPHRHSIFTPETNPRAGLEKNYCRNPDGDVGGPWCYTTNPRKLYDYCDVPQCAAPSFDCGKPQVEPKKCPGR
Protocol: as §1

[3] = target: Thrombin (Homo sapiens, UniProt P00734); assay: Related protease inhibition: Thrombin (fluorogenic substrate at Km); conditions: class symbols per Table 18
Protocol: as §1

[4] = target: T1, Human Factor XIIa (Homo sapiens, UniProt P00748); assay: Determination of FXIIa inhibition (fluorogenic substrate H-DPro-Phe-Arg-AFC, IC50 assay); conditions: substrate at Km concentration, 25° C.; category scale; read-out: Human FXII IC50 (nm)
T1 construct: Proteolytic cleavage of FXII to heavy and light chains of FXIIa dramatically increases catalytic activity; purchased Enzyme Research Laboratories
T1 sequence (P00748 373-615 limits assumed): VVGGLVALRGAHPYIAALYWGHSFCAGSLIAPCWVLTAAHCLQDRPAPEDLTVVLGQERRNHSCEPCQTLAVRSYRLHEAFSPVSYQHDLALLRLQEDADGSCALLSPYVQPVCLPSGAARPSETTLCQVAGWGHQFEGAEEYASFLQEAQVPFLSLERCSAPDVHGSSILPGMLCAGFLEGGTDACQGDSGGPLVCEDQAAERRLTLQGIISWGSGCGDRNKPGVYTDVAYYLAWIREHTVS
T1 sequence (P00748 20-372 partner limits assumed): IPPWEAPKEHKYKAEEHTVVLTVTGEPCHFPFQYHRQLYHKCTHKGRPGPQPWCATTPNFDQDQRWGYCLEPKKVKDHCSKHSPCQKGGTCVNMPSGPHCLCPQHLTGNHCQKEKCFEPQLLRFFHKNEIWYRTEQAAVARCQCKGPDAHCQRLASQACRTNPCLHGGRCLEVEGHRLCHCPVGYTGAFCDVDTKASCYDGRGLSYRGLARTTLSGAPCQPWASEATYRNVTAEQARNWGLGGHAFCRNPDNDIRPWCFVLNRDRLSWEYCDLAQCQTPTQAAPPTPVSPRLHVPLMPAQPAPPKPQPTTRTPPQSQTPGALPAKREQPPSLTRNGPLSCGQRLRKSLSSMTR
Summary of the method: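 Human FXIIa incubated at 25° C. with fluorogenic H-DPro-Phe-Arg-AFC at its Km concentration plus varying compound levels. Linear fluorescence increase over 5 min taken as % activity; IC50 is concentration halving uninhibited activity.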

[5] = target: T2, Plasma Kallikrein (Homo sapiens, UniProt P03952); assay: Related protease inhibition: Plasma Kallikrein (fluorogenic substrate at Km); conditions: class symbols per Table 18, read-out: IC50 (human PKal)
T2 construct: FXIIa converts plasma prekallikrein (PK) to plasma kallikrein (PKa)
T2 sequence (P03952 391-638 limits assumed): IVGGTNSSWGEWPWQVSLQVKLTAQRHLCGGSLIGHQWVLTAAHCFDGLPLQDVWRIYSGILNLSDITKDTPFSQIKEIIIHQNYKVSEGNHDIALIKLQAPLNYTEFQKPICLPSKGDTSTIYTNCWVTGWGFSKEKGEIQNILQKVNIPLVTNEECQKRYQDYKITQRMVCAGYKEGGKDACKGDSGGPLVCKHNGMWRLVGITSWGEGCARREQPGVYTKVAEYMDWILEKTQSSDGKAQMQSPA
T2 sequence (P03952 20-390 partner limits assumed): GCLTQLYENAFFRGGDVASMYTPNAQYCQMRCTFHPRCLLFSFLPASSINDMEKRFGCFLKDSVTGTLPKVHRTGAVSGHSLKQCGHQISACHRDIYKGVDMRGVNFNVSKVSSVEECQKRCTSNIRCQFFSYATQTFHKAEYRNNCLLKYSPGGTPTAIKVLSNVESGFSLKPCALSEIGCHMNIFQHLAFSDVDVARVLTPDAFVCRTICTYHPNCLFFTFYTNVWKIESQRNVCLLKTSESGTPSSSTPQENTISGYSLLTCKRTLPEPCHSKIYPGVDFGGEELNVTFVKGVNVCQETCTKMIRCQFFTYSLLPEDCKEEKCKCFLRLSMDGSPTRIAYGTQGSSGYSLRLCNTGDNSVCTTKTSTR
Summary of the method: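 Fluorogenic substrate at Km for thrombin, trypsin and plasma kallikrein; FXIa run at fixed 100 μM substrate. Varied inhibitor concentrations, fluorescence accumulation read over 5 min, 25° C. IC50 = concentration giving 50% inhibition versus uninhibited (100%) activity.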

[6] = target: FXa (Homo sapiens, UniProt P00742); assay: Related protease inhibition: FXa (fluorogenic substrate at Km); conditions: class symbols per Table 18
FXa, sequence (P00742 235-488 limits assumed): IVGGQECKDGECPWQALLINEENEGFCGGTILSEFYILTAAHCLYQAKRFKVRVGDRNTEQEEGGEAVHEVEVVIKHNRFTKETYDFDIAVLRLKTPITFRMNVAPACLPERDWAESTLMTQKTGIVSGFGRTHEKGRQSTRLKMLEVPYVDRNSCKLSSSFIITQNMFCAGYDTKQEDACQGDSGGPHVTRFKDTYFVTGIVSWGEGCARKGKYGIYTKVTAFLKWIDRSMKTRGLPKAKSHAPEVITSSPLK
FXa, sequence (P00742 41-179 partner limits assumed): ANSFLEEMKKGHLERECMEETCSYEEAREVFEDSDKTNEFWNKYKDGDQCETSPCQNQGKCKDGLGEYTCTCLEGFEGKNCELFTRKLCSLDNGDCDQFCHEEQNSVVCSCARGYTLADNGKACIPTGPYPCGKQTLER
Protocol: as §1

[7] = target: Trypsin (Homo sapiens, UniProt P07477); assay: Related protease inhibition: Trypsin (fluorogenic substrate at Km); conditions: class symbols per Table 18
Protocol: as §1

KLK1, sequence (P06870 25-262): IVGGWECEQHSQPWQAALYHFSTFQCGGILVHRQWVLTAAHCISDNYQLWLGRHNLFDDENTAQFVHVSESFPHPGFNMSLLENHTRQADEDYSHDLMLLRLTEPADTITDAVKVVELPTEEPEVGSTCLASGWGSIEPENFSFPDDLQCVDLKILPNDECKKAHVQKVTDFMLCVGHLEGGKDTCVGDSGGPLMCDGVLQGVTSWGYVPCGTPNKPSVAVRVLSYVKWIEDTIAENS

Structure (SMILES) | IC50 [1] [µM] | IC50 [2] [µM] | IC50 [3] [µM] | IC50 [4] [µM] | IC50 [5] [µM] | IC50 [6] [µM] | IC50 [7] [µM]
Cn1ccc(OCC23CN(C(=O)Nc4ccccc4)C(CNc4cccc5c(N)nccc45)(C2)C3)cc1=O [Example 12036, 1-(((1-aminoisoquinolin-5-yl)amino)methyl)-4-(((1-methyl-2-oxo-1,2-dihydropyridin-4-yl)oxy)methyl)-N-phenyl-2-azabicyclo[2.1.1]hexane-2-carboxamide] | 1 to 3 | 3 to 10 | > 40 | 0.001 to 0.01 | 10 to 40 | 10 to 40 | > 40
Nc1nccc2c(NCC34CC(COc5cnc6cc[nH]c6c5)(C3)C4)cccc12 [Example 1101, 5-N-[[3-(1H-pyrrolo[3,2-b]pyridin-6-yloxymethyl)-1-bicyclo[1.1.1]pentanyl]methyl]isoquinoline-1,5-diamine] | 3 to 10 | – | 10 to 40 | 3 to 10 | > 40 | 1 to 3 | –
c1cc2cc(NCC34CC(COc5ccn6ccnc6c5)(C3)C4)ccc2cn1 [Example 1011, N-((3-((imidazo[1,2-a]pyridin-7-yloxy)methyl)bicyclo[1.1.1]pentan-1-yl)methyl)isoquinolin-6-amine] | 10 to 40 | – | 10 to 40 | 10 to 40 | > 100 | 1 to 3 | –
Cc1cc2c(NCC34CC(COc5ccn6ccnc6c5)(CO3)C4)ccnc2[nH]1 [Example 6605, N-((4-((imidazo[1,2-a]pyridin-7-yloxy)methyl)-2-oxabicyclo[2.1.1]hexan-1-yl)methyl)-2-methyl-1H-pyrrolo[2,3-b]pyridin-4-amine] | 10 to 40 | – | 10 to 40 | 3 to 10 | > 40 | 10 to 40 | –
Cn1ccc(OCC23CC(CNc4cccc5c(N)nccc45)(C2)C3)cc1=O [Example 1019, 4-[[3-[[(1-aminoisoquinolin-5-yl)amino]methyl]-1-bicyclo[1.1.1]pentanyl]methoxy]-1-methylpyridin-2-one] | 3 to 10 | – | 10 to 40 | 0.3 to 1 | > 40 | 10 to 40 | –
Nc1nccc2c(NCC34CC(CN5CCn6ccnc6C5)(C3)C4)cccc12 [Example 1004, 5-N-[[3-(6,8-Dihydro-5H-imidazo[1,2-a]pyrazin-7-ylmethyl)-1-bicyclo[1.1.1]pentanyl]methyl]isoquinoline-1,5-diamine] | 3 to 10 | – | 10 to 40 | 3 to 10 | > 40 | 1 to 3 | –
Cc1cn2ccc(OCC34CC(CNc5cccc6c(N)nccc56)(C3)C4)cc2n1 [Example 1006, N5-((3-(((2-Methylimidazo[1,2-a]pyridin-7-yl)oxy)methyl)bicyclo[1.1.1]pentan-1-yl)methyl)isoquinoline-1,5-diamine] | 1 to 3 | – | 10 to 40 | 0.1 to 0.3 | > 40 | 1 to 3 | –
Nc1nccc2c(NCC34CC(COc5ccc6nc[nH]c6c5)(C3)C4)cccc12 [Example 1105, N5-((3-(((1H-benzo[d]imidazol-6-yl)oxy)methyl)bicyclo[1.1.1]pentan-1-yl)methyl)isoquinoline-1,5-diamine] | 3 to 10 | – | 10 to 40 | 3 to 10 | > 40 | 1 to 3 | –
Cn1ccc(OCC23COC(CNc4cccc5c(N)nccc45)(C2)C3)cc1=O [Example 6609, 4-((1-(((1-aminoisoquinolin-5-yl)amino)methyl)-2-oxabicyclo[2.1.1]hexan-4-yl)methoxy)-1-methylpyridin-2(1H)-one] | 3 to 10 | – | > 40 | 0.1 to 0.3 | > 40 | > 40 | –
Nc1nccc2c(NCC34CC(COc5ccc6nccn6c5)(C3)C4)cccc12 [Example 1017, 5-N-[[3-(Imidazo[1,2-a]pyridin-6-yloxymethyl)-1-bicyclo[1.1.1]pentanyl]methyl]isoquinoline-1,5-diamine] | 3 to 10 | – | 10 to 40 | 0.1 to 0.3 | > 40 | 10 to 40 | –
Nc1nccc2c(NCC34CC(COc5ccn6ccnc6c5)(CO3)C4)cccc12 [Example 6601, 5-N-[[4-(Imidazo[1,2-a]pyridin-7-yloxymethyl)-2-oxabicyclo[2.1.1]hexan-1-yl]methyl]isoquinoline-1,5-diamine] | 3 to 10 | – | 10 to 40 | 0.01 to 0.1 | > 40 | 10 to 40 | –
Nc1nccc2c(NCC34CC(COC5Cc6nccn6C5)(C3)C4)cccc12 (centres unmarked) [Example 1118, N5-((3-(((6,7-dihydro-5H-pyrrolo[1,2-a]imidazol-6-yl)oxy)methyl)bicyclo[1.1.1]pentan-1-yl)methyl)isoquinoline-1,5-diamine] | 3 to 10 | – | 10 to 40 | 1 to 3 | > 40 | > 40 | –
Nc1nccc2c(NCC34CC(COc5ccc6c(c5)C(=O)NC6)(C3)C4)cccc12 [Example 1109, 6-((3-(((1-aminoisoquinolin-5-yl)amino)methyl)bicyclo[1.1.1]pentan-1-yl)methoxy)isoindolin-1-one] | 1 to 3 | – | 10 to 40 | 0.3 to 1 | > 40 | 10 to 40 | –
Nc1nccc2c(NCC34CC(COc5ccc6nccn6c5)(CCO3)C4)cccc12 [Example 10904, N5-((5-((imidazo[1,2-a]pyridin-6-yloxy)methyl)-2-oxabicyclo[3.1.1]heptan-1-yl)methyl)isoquinoline-1,5-diamine] | 3 to 10 | – | 10 to 40 | 0.01 to 0.1 | > 40 | > 40 | –
Cc1cc2c(NCC34CC(COc5ccn6ccnc6c5)(CCO3)C4)ccnc2[nH]1 [Example 10907, N-[[5-(Imidazo[1,2-a]pyridin-7-yloxymethyl)-2-oxabicyclo[3.1.1]heptan-1-yl]methyl]-2-methyl-1H-pyrrolo[2,3-b]pyridin-4-amine] | > 40 | – | > 40 | 1 to 3 | > 40 | > 40 | –
Cn1ccc(OCC23CN(C(=O)NCc4ccccc4)C(CNc4cccc5c(N)nccc45)(C2)C3)cc1=O [Example 12017, 1-(((1-aminoisoquinolin-5-yl)amino)methyl)-N-benzyl-4-(((1-methyl-2-oxo-1,2-dihydropyridin-4-yl)oxy)methyl)-2-azabicyclo[2.1.1]hexane-2-carboxamide] | 3 to 10 | 10 to 40 | > 40 | – | 10 to 40 | 10 to 40 | > 40
Nc1nccc2c(NCC34CC(C(=O)N5CCn6ccnc6C5)(C3)C4)cccc12 [Example 1016, [3-[[(1-Aminoisoquinolin-5-yl)amino]methyl]-1-bicyclo[1.1.1]pentanyl]-(6,8-dihydro-5H-imidazo[1,2-a]pyrazin-7-yl)methanone] | 3 to 10 | – | > 40 | 3 to 10 | > 40 | > 40 | –
Nc1nccc2c(NC[C@H]3C[C@@H](COc4ccn5ccnc5c4)C3)cccc12 [Example 5003, N5-((cis-3-((imidazo[1,2-a]pyridin-7-yloxy)methyl)cyclobutyl)methyl)isoquinoline-1,5-diamine] | 3 to 10 | – | > 40 | 0.1 to 0.3 | > 40 | > 40 | –
Nc1nccc2c(NCC34COC(COc5ccc6nnc(C(F)F)n6n5)(C3)C4)cccc12 [Example 2204, N5-((1-(((3-(difluoromethyl)-[1,2,4]triazolo[4,3-b]pyridazin-6-yl)oxy)methyl)-2-oxabicyclo[2.1.1]hexan-4-yl)methyl)isoquinoline-1,5-diamine] | 3 to 10 | – | > 40 | 0.3 to 1 | > 40 | > 40 | –
